Results from publication PMC9780888, “4-Isobutylmethcathinone—A Novel Synthetic Cathinone with High In Vitro Cytotoxicity and Strong Receptor Binding Preference of Enantiomers” (Pharmaceuticals, 2022).

Tests used:
Type in all cases: cell-based
[1] = target: T1, HTR2B (5-hydroxytryptamine receptor 2B) (Homo sapiens, UniProt P41595); assay: PRESTO-Tango β-arrestin 2 recruitment assay, HTR2B; conditions: 0-500 nM
T1 construct: Tango construct (TEV cleavage site and tTA, as described for the dopamine receptor plasmids); host or cells: HTLA (HEK 293-derived)
T1 sequence (P41595 whole entry): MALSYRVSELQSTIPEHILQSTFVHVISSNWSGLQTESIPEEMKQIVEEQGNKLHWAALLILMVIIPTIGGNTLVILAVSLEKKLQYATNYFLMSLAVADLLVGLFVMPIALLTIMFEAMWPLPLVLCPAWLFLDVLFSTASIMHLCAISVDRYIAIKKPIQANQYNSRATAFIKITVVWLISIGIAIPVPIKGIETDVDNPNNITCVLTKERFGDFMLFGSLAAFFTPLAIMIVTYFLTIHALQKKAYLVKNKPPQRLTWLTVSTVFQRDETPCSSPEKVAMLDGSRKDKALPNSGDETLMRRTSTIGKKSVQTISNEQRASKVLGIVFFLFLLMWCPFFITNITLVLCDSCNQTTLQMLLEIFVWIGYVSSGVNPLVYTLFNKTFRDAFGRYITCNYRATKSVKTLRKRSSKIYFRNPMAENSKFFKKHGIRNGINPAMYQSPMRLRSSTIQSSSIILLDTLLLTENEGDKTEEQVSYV
Protocol: (§1) The HTLA cell line was used for the PRESTO-Tango β-arrestin recruitment assay. The HTLA cells were provided as a gift from the laboratory of Bryan Roth (Roth Lab, USA). It is a human cell line derived from human embryonic kidney cells (HEK 293) stably expressing β-arrestin in a fusion with the tobacco etch virus protease (TEV) protease and the luciferase gene under the control of the transcription factor tetracycline transcriptional activator (tTA). The HTLA cells were cultured under standard incubation conditions (37 °C, 5% CO2, 95% humidity) in DMEM with 10% FBS. […]
The transfected HTLA cells were incubated for 24 h, and then 1 × 10^4 cells were seeded per well of a white 96-well clear bottom plate (Brand, Germany) in 40 μL of DMEM with 1% charcoal-stripped FBS (Thermo Fisher Scientific, USA). […] After 5 min., the luminescence was measured using a multi-mode microplate reader SpectraMax iD5 (Molecular Devices, San Jose, CA, USA) measuring the entire wavelength spectrum. All samples were measured in quadruplicates. The data were evaluated by Prism 7 software (GraphPad, San Jose, CA, USA).
Figure S13: β-arrestin 2 recruitment PRESTO-Tango assay: activation of the serotonin receptors. […] The data were processed and evaluated by GraphPad Prism Software using one-way […]

[2] = target: T2, ADRA2C (alpha-2C adrenergic receptor) (Homo sapiens, UniProt P18825); assay: PRESTO-Tango β-arrestin 2 recruitment assay, ADRA2C; conditions: 500 nM
T2 construct: Tango construct (TEV cleavage site and tTA, as described for the dopamine receptor plasmids); host or cells: HTLA (HEK 293-derived)
T2 sequence (P18825 whole entry): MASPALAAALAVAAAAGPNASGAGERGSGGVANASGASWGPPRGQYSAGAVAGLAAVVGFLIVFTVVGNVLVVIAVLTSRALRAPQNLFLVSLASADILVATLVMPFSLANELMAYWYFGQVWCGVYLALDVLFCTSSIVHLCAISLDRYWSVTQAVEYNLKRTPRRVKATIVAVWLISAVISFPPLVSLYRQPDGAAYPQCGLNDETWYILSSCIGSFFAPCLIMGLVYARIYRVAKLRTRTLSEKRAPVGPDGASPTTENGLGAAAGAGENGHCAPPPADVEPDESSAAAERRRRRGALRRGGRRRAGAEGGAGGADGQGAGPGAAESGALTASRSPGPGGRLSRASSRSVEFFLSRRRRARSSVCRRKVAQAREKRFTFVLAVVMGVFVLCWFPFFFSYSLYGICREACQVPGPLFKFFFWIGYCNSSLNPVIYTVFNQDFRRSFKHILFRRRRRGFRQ
Protocol: as §1
(§2) The transfected HTLA cells were incubated for 24 h, and then 1 × 10^4 cells were seeded per well of a white 96-well clear bottom plate (Brand, Germany) in 40 μL of DMEM with 1% charcoal-stripped FBS (Thermo Fisher Scientific, USA). […] After 5 min., the luminescence was measured using a multi-mode microplate reader SpectraMax iD5 (Molecular Devices, San Jose, CA, USA) measuring the entire wavelength spectrum. All samples were measured in quadruplicates. The data were evaluated by Prism 7 software (GraphPad, […], CA, USA). […]
(§3) The error bar represents standard deviation from four replicates. The data were processed and evaluated by GraphPad Prism Software using one-way ANOVA: * p<0.05; ** p<0.01; *** […]

[3] = target: T3, ADRB1 (beta-1 adrenergic receptor) (Homo sapiens, UniProt P08588); assay: PRESTO-Tango β-arrestin 2 recruitment assay, ADRB1; conditions: ADRB1, 500 nM
T3 construct: Tango construct (TEV cleavage site and tTA, as described for the dopamine receptor plasmids); host or cells: HTLA (HEK 293-derived)
T3 sequence (P08588 whole entry): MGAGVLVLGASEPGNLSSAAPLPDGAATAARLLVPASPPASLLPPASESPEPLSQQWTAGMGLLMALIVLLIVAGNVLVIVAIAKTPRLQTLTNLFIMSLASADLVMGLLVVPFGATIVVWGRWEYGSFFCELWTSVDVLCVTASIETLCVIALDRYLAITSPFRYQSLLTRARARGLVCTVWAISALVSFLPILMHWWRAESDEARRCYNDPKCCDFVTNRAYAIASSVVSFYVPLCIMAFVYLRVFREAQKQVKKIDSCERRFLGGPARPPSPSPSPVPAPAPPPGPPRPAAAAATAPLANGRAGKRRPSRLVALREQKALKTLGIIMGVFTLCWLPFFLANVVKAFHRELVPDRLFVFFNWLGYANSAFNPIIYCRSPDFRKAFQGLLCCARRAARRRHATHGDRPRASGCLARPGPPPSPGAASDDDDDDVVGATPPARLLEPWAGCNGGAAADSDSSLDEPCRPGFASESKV
Protocol: as §1, §2, §3

[4] = target: T4, ADRA2B (alpha-2B adrenergic receptor) (Homo sapiens, UniProt P18089); assay: PRESTO-Tango β-arrestin 2 recruitment assay, ADRA2B; conditions: 500 nM
T4 construct: Tango construct (TEV cleavage site and tTA, as described for the dopamine receptor plasmids); host or cells: HTLA (HEK 293-derived)
T4 sequence (P18089 whole entry): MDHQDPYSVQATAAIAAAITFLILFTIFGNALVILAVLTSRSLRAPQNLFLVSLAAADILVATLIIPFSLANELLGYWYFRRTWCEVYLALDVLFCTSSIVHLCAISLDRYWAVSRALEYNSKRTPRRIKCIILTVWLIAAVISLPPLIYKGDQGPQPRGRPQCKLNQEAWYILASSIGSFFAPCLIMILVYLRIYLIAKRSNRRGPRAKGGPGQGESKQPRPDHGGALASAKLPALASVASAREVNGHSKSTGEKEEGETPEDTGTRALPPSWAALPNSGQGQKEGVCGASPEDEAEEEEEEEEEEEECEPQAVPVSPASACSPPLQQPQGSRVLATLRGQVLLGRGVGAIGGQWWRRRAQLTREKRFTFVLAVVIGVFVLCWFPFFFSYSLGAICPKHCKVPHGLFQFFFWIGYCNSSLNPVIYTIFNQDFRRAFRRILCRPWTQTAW
Protocol: as §1, §2, §3

dopamine receptor DAR1 = target: T5, dopamine receptor DAR1 (Homo sapiens, UniProt P21728); assay: PRESTO-Tango β-arrestin 2 recruitment assay, DAR1; conditions: HTLA cells
T5 construct: host or cells: HTLA (HEK 293-derived)
T5 sequence (P21728 whole entry): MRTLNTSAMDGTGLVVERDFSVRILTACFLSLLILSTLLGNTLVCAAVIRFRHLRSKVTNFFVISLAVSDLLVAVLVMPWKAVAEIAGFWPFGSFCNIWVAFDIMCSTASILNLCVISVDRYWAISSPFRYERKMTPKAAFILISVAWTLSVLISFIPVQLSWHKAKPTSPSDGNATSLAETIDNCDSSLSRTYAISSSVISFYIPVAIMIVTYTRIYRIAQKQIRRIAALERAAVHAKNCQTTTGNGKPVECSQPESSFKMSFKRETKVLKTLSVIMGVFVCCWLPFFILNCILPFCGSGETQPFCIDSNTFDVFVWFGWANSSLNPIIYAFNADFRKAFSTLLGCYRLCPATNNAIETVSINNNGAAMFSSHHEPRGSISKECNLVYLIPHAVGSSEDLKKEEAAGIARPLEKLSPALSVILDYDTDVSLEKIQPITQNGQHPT
Text: However, binding to a specific receptor/transporter and, thus, the mechanism of action of a given cathinone always depends on the specific structure of the evaluated compound [37]. In this study, the binding activity of IBMcat and its enantiomers was verified by PRESTO-Tango (parallel receptor expression and screening via transcriptional output, with transcriptional activation following arrestin-2 translocation) assay using the HTLA cell line stably producing β-arrestin-2 in a fusion with TEV and luciferase production driven by tTA. […] The transcription factor then translocates to the cell nucleus, in which it triggers the transcription of the target gene for luciferase production which can be determined by the light emitted from luciferin conversion to oxyluciferin. Here, the pronounced luminescence was recorded for all DAR1-4 types in HTLA cells treated with IBMCat and its enantiomers (Figure 8). […]
The transfected HTLA cells were incubated for 24 h, and then 1 × 10^4 cells were seeded per well of a white 96-well clear bottom plate (Brand, Germany) in 40 μL of DMEM with 1% charcoal-stripped FBS (Thermo Fisher Scientific, USA). […] After 5 min., the luminescence was measured using a multi-mode microplate reader SpectraMax iD5 (Molecular Devices, San Jose, CA, USA) measuring the entire wavelength spectrum. All samples were measured in quadruplicates. […]

CNC(C)C(=O)c1ccc(CC(C)C)cc1.Cl (stereo not drawn) [IBMcat, 4-isobutylmethcathinone hydrochloride]
agonistic activity for HTR2B [1]: did not exhibit any agonistic activity | increase in RLU compared to untreated control [2]: 3.7 fold | increase in the luminescence signal [3]: 3 fold | increase in RLU compared to untreated control [4]: 1.5 fold | effect on DAR1 (increase in RLU with increasing concentration) (dopamine receptor DAR1; 0-500 nM): acted as agonists | concentration from which no further increase in RLU was detected (maximum effective concentration) (dopamine receptor DAR1; DAR1): 10 nM
